Entries after “also recorded” stand apart in the source; their conditions may differ.
Experiments:
[1] = tested on: colon cancer cell line HCT116; experiment: Anti-proliferative activity in HCT116; assay type: cell-based
[2] = tested on: breast cancer cell line BT-474; experiment: Anti-proliferative activity in BT-474; assay type: cell-based
[3] = Pharmacokinetic study after single oral administration; assay type: in vivo; settings: Sprague Dawley, rat, plasma, male rats
Procedure: A study to determine the pharmacokinetics of E05 after single oral (10 mg/kg) administration in male Sprague Dawley rats was carried out. […] The absolute oral bioavailability of Small molecule was 80% (FIG. 18).

[4] = Repeated dose 7-day dose range finding study, oral gavage; assay type: in vivo
Procedure: Repeated dose 7-day dose range finding study (DRF) of E05 through oral gavage was carried out in Wistar rats.

MDA-MB-468 = experiment: Murine xenograft model of Triple-Negative Breast Cancer; assay type: in vivo, SCID mice; settings: oral, twice daily
Procedure: Efficacy study of E05 and positive control (5-Fluorouracil) were carried out in a murine xenograft model of Triple-Negative Breast Cancer (MDA-MB-468). Dosing was done as per the Table. 3.
Female SCID (Severe Combined Immunodeficient) mice were used for this study.
Approximately 5×10^6 cells in 0.2 mL FBS free medium containing 50% of Matrigel was injected into sub-cutaneous tissue on right flank of each mouse. Treatment with E05 or with positive control was initiated when average tumor volume reaches ˜100 mm3. Tumor volume was measured periodically.

[5] = Maximum tolerated dose study, oral gavage; assay type: in vivo; settings: single oral gavage
Procedure: A maximum tolerated dose (MTD) study was carried out with E05. In MTD study, group of 3 male and 3 female rats were dosed at 175 (group 1), 550 (group 2), 1750 (group 3) and 2000 (group 4) mg/kg b. wt.

SRC kinase = biological target: T1, SRC kinase (Homo sapiens, UniProt P12931); experiment: Kinase inhibitor screening assay (Promega kinase selectivity profiling, ADP-Glo); assay type: biochemical; design: dose or concentration left out as unconfirmed; settings: panel of 16 tyrosine kinases
T1 construct: purchased Promega
T1 sequence (P12931 whole entry): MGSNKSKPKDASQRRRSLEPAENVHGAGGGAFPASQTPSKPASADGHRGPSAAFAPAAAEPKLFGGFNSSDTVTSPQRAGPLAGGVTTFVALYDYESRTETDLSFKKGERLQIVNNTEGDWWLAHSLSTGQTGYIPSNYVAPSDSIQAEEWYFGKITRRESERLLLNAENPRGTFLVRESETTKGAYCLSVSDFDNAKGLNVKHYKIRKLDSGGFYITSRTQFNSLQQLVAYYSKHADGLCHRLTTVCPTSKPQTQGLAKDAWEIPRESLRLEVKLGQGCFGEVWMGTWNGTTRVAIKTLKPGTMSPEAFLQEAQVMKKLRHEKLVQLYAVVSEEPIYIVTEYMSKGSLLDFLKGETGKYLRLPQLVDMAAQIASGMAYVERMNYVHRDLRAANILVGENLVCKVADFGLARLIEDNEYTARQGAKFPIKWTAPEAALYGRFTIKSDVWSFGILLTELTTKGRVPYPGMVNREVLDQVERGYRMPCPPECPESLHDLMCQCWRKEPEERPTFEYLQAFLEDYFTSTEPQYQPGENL
Procedure: The kinase selectivity profiling systems from Promega was used to check the inhibitory activity of the purified compound against the broad panel of Tyrosine kinases. The kinase selectivity assays were assembled in a 384-well plate using 1 μl of the purified compound ([…]), 2 μl of each kinase working stock and 2 μl of the corresponding ATP/Substrate working stock as per the manufacturer protocol and kinase activity was quantified using the ADP-Glo™ kinase assay from Promega. The reaction assembled with kinase and corresponding ATP/Substrate without the purified compound was used as a positive control.

MDA-MB-468 cells = experiment: MDA-MB-468 cell viability, CellTiter-Glo, 8 hrs, comparison with lapatinib; assay type: cell-based, human; settings: MDA-MB-468, within 8 hrs of incubation
Procedure: MDA-MB-468 cells (ATCC #HTB-32) were seeded with a density of 5,000 cells per well in a 96 well white plate (Costar Cat #3917) in DMEM media supplemented with 10% FBS (assay medium). The plates were incubated at 37° C., 5% CO2 for 24 hr. E05 and Lapatinib was diluted in the assay medium and added to the respective wells of the assay plates. The plates were further incubated at 37° C., 5% CO2 for 8 hrs. After the incubation, the cell viability was assessed using CellTiter-Glo® and the plates were read for luminescence using Cytation 5 (Biotek). The relative luminescence unit (RLU) obtained was plotted against the concentration and EC50 values were estimated using Graphpad Prism 5 software.

[6] = Female G2 250 mg/kg b. wt., oral gavage 7 days
[7] = Female G3 500 mg/kg b. wt., oral gavage 7 days
[8] = Female G4 1000 mg/kg b. wt., oral gavage 7 days
[9] = Male G2 250 mg/kg b. wt., oral gavage 7 days
[10] = Male G3 500 mg/kg b. wt., oral gavage 7 days
[11] = Male G4 1000 mg/kg b. wt., oral gavage 7 days

SMILES: O=C(O)CCc1ccc(O)c(O)c1 [E05, 3-(3,4-Dihydroxyphenyl) propanoic acid]
- inhibition of growth [1]: dose dependent response; also recorded: dose dependent inhibition of growth
- inhibition of growth [2]: dose dependent response; also recorded: dose dependent inhibition of growth
- bioavailability ([3]; oral 10 mg/kg, read-out: absolute oral bioavailability): 80%
- AUC(0-t) ([3]; single oral gavage 10 mg/kg): 151 ng·h/mL
- Cmax ([3]; single oral gavage 10 mg/kg): 306 ng/mL
- Tmax ([3]; single oral gavage 10 mg/kg, read-out: mean time to reach peak plasma concentration (Tmax)): 15 min
- Morbidity % [4, 6]: 0%
- Morbidity No [4, 6]: 0
- Mortality % [4, 6]: 0%
- Mortality No [4, 6]: 0
- Morbidity % [4, 7]: 0%
- Morbidity No [4, 7]: 0
- Mortality % [4, 7]: 0%
- Mortality No [4, 7]: 0
- Morbidity % [4, 8]: 0%
- Morbidity No [4, 8]: 0
- Mortality % [4, 8]: 0%
- Mortality No [4, 8]: 0
- Morbidity % [4, 9]: 0%
- Morbidity No [4, 9]: 0
- Mortality % [4, 9]: 0%
- Mortality No [4, 9]: 0
- Morbidity % [4, 10]: 0%
- Morbidity No [4, 10]: 0
- Mortality % [4, 10]: 0%
- Mortality No [4, 10]: 0
- Morbidity % [4, 11]: 0%
- Morbidity No [4, 11]: 0
- Mortality % [4, 11]: 0%
- Mortality No [4, 11]: 0
- food consumption, organ weight and relative organ weight ([4]; male and female rats, oral gavage 7 days): No treatment-related changes
- mortality, morbidity or clinical sign ([4]; rat, in vivo, po): no mortality, morbidity or clinical sign
- toxicity ([4]; up to 1000 mg/kg b. wt., orally through gavage, 7 consecutive days): did not produce any toxicity
- efficacy in the murine xenograft model of TNBC (MDA-MB-468; 6 weeks): statistically significant efficacy
- tumor volumes (MDA-MB-468; 6 weeks, 75, 200, 500 mg/kg): Dose dependent decrease in tumor volumes
- Morbidity on Experimental Day 1 ([5]; Female G1 175 mg/kg b. wt.): 0
- Morbidity on Experimental Day 2 ([5]; Female G1 175 mg/kg b. wt.): 0
- Morbidity on Experimental Day 3 ([5]; Female G1 175 mg/kg b. wt.): 0
- Morbidity on Experimental Day 4 ([5]; Female G1 175 mg/kg b. wt.): 0
- Mortality on Experimental Day 1 ([5]; Female G1 175 mg/kg b. wt.): 0
- Mortality on Experimental Day 2 ([5]; Female G1 175 mg/kg b. wt.): 0
- Mortality on Experimental Day 3 ([5]; Female G1 175 mg/kg b. wt.): 0
- Mortality on Experimental Day 4 ([5]; Female G1 175 mg/kg b. wt.): 0
- Morbidity on Experimental Day 1 ([5]; Female G2 550 mg/kg b. wt.): 0
- Morbidity on Experimental Day 2 ([5]; Female G2 550 mg/kg b. wt.): 0
- Morbidity on Experimental Day 3 ([5]; Female G2 550 mg/kg b. wt.): 0
- Morbidity on Experimental Day 4 ([5]; Female G2 550 mg/kg b. wt.): 0
- Mortality on Experimental Day 1 ([5]; Female G2 550 mg/kg b. wt.): 0
- Mortality on Experimental Day 2 ([5]; Female G2 550 mg/kg b. wt.): 0
- Mortality on Experimental Day 3 ([5]; Female G2 550 mg/kg b. wt.): 0
- Mortality on Experimental Day 4 ([5]; Female G2 550 mg/kg b. wt.): 0
- Morbidity on Experimental Day 1 ([5]; Female G3 1750 mg/kg b. wt.): 0
- Morbidity on Experimental Day 2 ([5]; Female G3 1750 mg/kg b. wt.): 0
- Morbidity on Experimental Day 3 ([5]; Female G3 1750 mg/kg b. wt.): 0
- Morbidity on Experimental Day 4 ([5]; Female G3 1750 mg/kg b. wt.): 0
- Mortality on Experimental Day 1 ([5]; Female G3 1750 mg/kg b. wt.): 0
- Mortality on Experimental Day 2 ([5]; Female G3 1750 mg/kg b. wt.): 0
- Mortality on Experimental Day 3 ([5]; Female G3 1750 mg/kg b. wt.): 0
- Mortality on Experimental Day 4 ([5]; Female G3 1750 mg/kg b. wt.): 0
- Morbidity on Experimental Day 1 ([5]; Female G4 2000 mg/kg b. wt.): 0
- Morbidity on Experimental Day 2 ([5]; Female G4 2000 mg/kg b. wt.): 0
- Morbidity on Experimental Day 3 ([5]; Female G4 2000 mg/kg b. wt.): 0
- Morbidity on Experimental Day 4 ([5]; Female G4 2000 mg/kg b. wt.): 0
- Mortality on Experimental Day 1 ([5]; Female G4 2000 mg/kg b. wt.): 0
- Mortality on Experimental Day 2 ([5]; Female G4 2000 mg/kg b. wt.): 0
- Mortality on Experimental Day 3 ([5]; Female G4 2000 mg/kg b. wt.): 0
- Mortality on Experimental Day 4 ([5]; Female G4 2000 mg/kg b. wt.): 0
- Morbidity on Experimental Day 1 ([5]; Male G1 175 mg/kg b. wt.): 0
- Morbidity on Experimental Day 2 ([5]; Male G1 175 mg/kg b. wt.): 0
- Morbidity on Experimental Day 3 ([5]; Male G1 175 mg/kg b. wt.): 0
- Morbidity on Experimental Day 4 ([5]; Male G1 175 mg/kg b. wt.): 0
- Mortality on Experimental Day 1 ([5]; Male G1 175 mg/kg b. wt.): 0
- Mortality on Experimental Day 2 ([5]; Male G1 175 mg/kg b. wt.): 0
- Mortality on Experimental Day 3 ([5]; Male G1 175 mg/kg b. wt.): 0
- Mortality on Experimental Day 4 ([5]; Male G1 175 mg/kg b. wt.): 0
- Morbidity on Experimental Day 1 ([5]; Male G2 550 mg/kg b. wt.): 0
- Morbidity on Experimental Day 2 ([5]; Male G2 550 mg/kg b. wt.): 0
- Morbidity on Experimental Day 3 ([5]; Male G2 550 mg/kg b. wt.): 0
- Morbidity on Experimental Day 4 ([5]; Male G2 550 mg/kg b. wt.): 0
- Mortality on Experimental Day 1 ([5]; Male G2 550 mg/kg b. wt.): 0
- Mortality on Experimental Day 2 ([5]; Male G2 550 mg/kg b. wt.): 0
- Mortality on Experimental Day 3 ([5]; Male G2 550 mg/kg b. wt.): 0
- Mortality on Experimental Day 4 ([5]; Male G2 550 mg/kg b. wt.): 0
- Morbidity on Experimental Day 1 ([5]; Male G3 1750 mg/kg b. wt.): 0
- Morbidity on Experimental Day 2 ([5]; Male G3 1750 mg/kg b. wt.): 0
- Morbidity on Experimental Day 3 ([5]; Male G3 1750 mg/kg b. wt.): 0
- Morbidity on Experimental Day 4 ([5]; Male G3 1750 mg/kg b. wt.): 0
- Mortality on Experimental Day 1 ([5]; Male G3 1750 mg/kg b. wt.): 0
- Mortality on Experimental Day 2 ([5]; Male G3 1750 mg/kg b. wt.): 0
- Mortality on Experimental Day 3 ([5]; Male G3 1750 mg/kg b. wt.): 0
- Mortality on Experimental Day 4 ([5]; Male G3 1750 mg/kg b. wt.): 0
- Morbidity on Experimental Day 1 ([5]; Male G4 2000 mg/kg b. wt.): 0
- Morbidity on Experimental Day 2 ([5]; Male G4 2000 mg/kg b. wt.): 0
- Morbidity on Experimental Day 3 ([5]; Male G4 2000 mg/kg b. wt.): 0
- Morbidity on Experimental Day 4 ([5]; Male G4 2000 mg/kg b. wt.): 0
- Mortality on Experimental Day 1 ([5]; Male G4 2000 mg/kg b. wt.): 0
- Mortality on Experimental Day 2 ([5]; Male G4 2000 mg/kg b. wt.): 0
- Mortality on Experimental Day 3 ([5]; Male G4 2000 mg/kg b. wt.): 0
- Mortality on Experimental Day 4 ([5]; Male G4 2000 mg/kg b. wt.): 0
- SRC kinase activity (SRC kinase): inhibited
- inhibition compared with lapatinib (MDA-MB-468 cells): stronger inhibition in compare to lapatinib

— US20220370385A1, “COMPOSITIONS FOR USE IN INHIBITING SRC KINASE AND TREATING AND PREVENTING ASSOCIATED DISORDERS” (Enzene Biosciences Ltd., priority 2019, published 2022)
